Where “and” joins values, the source holds several entries; their conditions need not be identical. Identical values can stand only once. Entries after “also recorded” stand apart in the source; their conditions may differ.
How the values were obtained:
[1] = tested on: Ras; parameters: method as in PMID 22431598; conditions: cited from earlier work
[2] = tested on: AT1R; assay: Endosomal BRET assay of AngII-mediated AT1R internalization (AT1R-RlucII / Endo-rGFP; HTS, validation, concentration-response); format: cell-based, human; conditions: 50 μM
Excerpt: We performed a HT campaign in HEK293 cells using the bystander endosomal BRET sensor, which consists of a Renilla luciferase (RlucII)-tagged AT1R and an acceptor renilla GFP (rGFP) anchored to endosomes through an Endofin-FYVE (Endo-rGFP) domain[12]. AngII-mediated trafficking of AT1R to endosomes was screened against commercial libraries of ~115,000 small molecules (Fig. 1a and Supplementary Data 1). Because our assay is based on luminescence and fluorescence, we excluded 6610 compounds that quenched more than 50% of the luciferase or GFP signals. After excluding 5 AT1R antagonists, we conserved hit compounds blocking by more than 40%, as well as those potentiating by more than 100% receptor internalization. From this collection of 943 compounds, a second validation on AT1R internalization was performed using the same BRET assay, as well as on the agonist-mediated B2R internalization, this time using B2R-RlucII and Endo-rGFP. Only compounds that were revalidated on AT1R and affected B2R endocytosis were kept, which included forty hits (20 potentiators and 20 inhibitors) (Fig. 1b and Supplementary Data 2). We focused on inhibitors that were commercially available at the beginning of the project and tested their cell toxicity by microscopy, looking at cells expressing B2R tagged with YFP, which highlights cell contours and potential morphological changes, such as rounding up of cells following treatment with 50 μM of the compounds that may have indicated cell death. None of the inhibitors tested caused abnormal cell morphological changes when cells were treated with compounds as compared to DMSO-treated cells. Inhibitors were also assessed in terms of structure novelty, derivatization potential, and commercial availability of analogs (within 95–98% similarity from Tanimoto metric, Sci-Finder, https://scifinder-n.cas.org), for structure-activity relationship studies (SAR). They were scored 1–5, from best to worst. We excluded compounds with potential nucleophilic reactivity (e.g., Michael addition: compounds 7, 26, and 27), those reported to have biological activities (compounds 8, 20, 25, 30, and 35) and/or showing autofluorescence (compound 26). Compound 19 ranked high, but only had one other molecule with a similar structure available. Although other molecules could be interesting in their own rights as endocytosis inhibitors (e.g., compounds 1, 9, 11, 12, 13, 24, 31, and 37), we focused on compound 21 (Fig. 1c) because not only did it rank high in our analysis, but it was also the only compound with substantially more similar analogs commercially available at the time of these investigations. In the screen and the follow-up validation assay, 21 inhibited more than 50% AT1R internalization and more than 65% B2R internalization (Supplementary Data 2). […] Because β-arrestins are critically involved in GPCR endocytosis and trafficking in cells, we assessed 21’s effects on β-arrestins’ recruitment to AT1R and B2R at the PM using a BRET assay, as well as their trafficking into endosomes by microscopy.
The chemical library used for initial screening was from Chembridge DiverSet™ (60,000 compounds), Maybridge HitFinder™ (16,000 compounds), Maybridge (selected, 16,000 compounds), SPECS (selected, 16000 compounds), Microsource Discovery Spectrum (2000 compounds), Biomol (natural products, 500 compounds), Prestwick (commercialized products, 1120 compounds), SIGMA LopacTM (1280 compounds) and internal collection (synthesized at Université de Montréal-IRIC, ~4000 compounds). Compounds were all assigned an Université de Montréal number (UM) for internal use. Screen was performed at IRIC HTS facility. KINOMEscan™ profiling was serviced by Eurofin/DiscoverX (San Diego, USA).
HEK293SL cells were seeded at a density of 7.5 × 10^5 cells per 100-mm dish and 24 h later, transiently transfected as such. […]

[3] = tested on: ERK1/2 activation by AT1R; assay: Western blot of AT1R-mediated ERK1/2 phosphorylation; format: cell-based, human; conditions: 50 μM
Procedure: HEK293SL cells (10^5 cells per well) were seeded in a poly-L-lysine-coated six-well plate and transiently transfected with 3 μg Flag-AT1R, HA-B2R or HA-β2AR and/or 500 ng Flag-MEK1-WT, Flag-MEK1-DD, Flag-BRAF-WT, Flag-BRAF-V600E, Flag-K-Ras-WT, Flag-K-Ras-G12V, HA-ARF6-WT, or HA-ARF6-T27N. Gαq/11 KO and βarr1/2 KO cells were seeded onto 100 mm dishes at a density of 10^6 cells per dish. Next day, cells were transfected with 3 μg AT1R alone or along with 500 ng of β-arrestin2 using PEI. After 18 h of transfection, cells were detached and re-seeded onto poly-L-lysine coated 12-well plates (~1.5–2 × 10^5cells/well) for subsequent experiments. Forty-eight hours post transfection, in a 37 °C water bath, cells were serum-starved for 30 min, pretreated with DMSO (0.1%) or compound 21/Rasarfin (50 µM or at indicated concentrations) for 30 min, then stimulated or not with the indicated ligand [AngII (1 µM), BK (1 µM), Iso (10 µM) or EGF (100 ng/ml)] at indicated times. Cells were put on ice, washed with PBS and solubilized in 2x laemmli buffer (250 mM Tris–HCl pH 6.8, 2% SDS (w/v), 10% glycerol (v/v), 0.01% bromophenol blue (w/v) and 5% β-mercaptoethanol (v/v)) by heating at 65 °C for 15 min. Lysates were resolved on 10 or 14% SDS-PAGE, transferred to nitrocellulose membranes and immunoblotted for p-ERK1/2, ERK1/2, p-Akt, Akt, HA, Myc, β-actin or FLAG. ImageLab 5.2 software was used to quantify the digital blots as fold of the phosphorylated protein over total protein, which were then normalized as indicated in the figure legends. Uncropped immunoblots are provided in the Source Data file.

[4] = target: H-Ras (Homo sapiens, UniProt P01112); assay: In vitro mant-GTP exchange assay, purified H-Ras with purified SOS1; format: biochemical; parameters: the cDNA of H-Ras (full length) was obtained by RT-PCR of HEK293SL; GST (N); host or cells: E. coli BL21; conditions: 50 μM
Procedure: Ras activity was assessed in a 384-well black bottom plate using the mant-GTP exchange factor assay that measures the uptake of the fluorescent nucleotide analog N-methylanthraniloyl-GTP (mant-GTP) into GTPases. For Ras activation, 2X exchange buffer, 1.66 μg of purified pGEX-6P-1-H-Ras or pGEX-6P-1-K-Ras-WT or pGEX-6P-1-K-Ras-Y32A were added per well in presence of DMSO, different concentrations of Rasarfin (as indicated) or 50 µM of compounds 21.4, 21.7, or 21.8. Using the Infinite 200 Pro plate reader (Tecan) with filters set at 360 nm and 440 nm for detecting the excitation and emissions, respectively, and temperature set at 20 °C, 5 readings were recorded every 5 s before the addition of either H2O, 40 mM EDTA or 0.66 μg purified SOS1. The fluorescence of mant-GTP uptake was measured every 30 sec for 30 min and quantified as the delta relative fluorescence units (RFU), which was calculated as the RFU post-addition minus the 5 averaged RFU pre-addition, per condition.

[5] = tested on: MDA-MB-231 cells; assay: Cell proliferation assay (IncuCyte confluence), MDA-MB-231; format: cell-based, human; conditions: 10 µM
Procedure: Cell proliferation was measured by a label-free, non-invasive cellular confluence assay using IncuCyte Live-Cell Imaging Systems (Essen Bioscience, Ann Arbor, MI, USA). MDA-MB-231 breast cancer and A549 lung carcinomas cells (1500 cells in 150 μl/well) were seeded overnight on a clear 96-well plate. Twenty-four hours later, the cells were treated with 0.1% DMSO, or different concentrations of Rasarfin (as indicated), or 10 µM of 21.4 or 21.8 for 96 h total. The plate was placed in an XL-3 incubation chamber maintained at 37 °C and the cells were photographed using a ×4 objective, every 3 h for 4 days. Cell confluence was calculated using IncuCyte S3 software (2019A) and cell proliferation was expressed as an increase in the percentage of confluence. Experiments were done in triplicate and repeated three times.

[6] = tested on: MDA-MB-231 cells; assay: Cell viability assay (MTT), MDA-MB-231; format: cell-based, human; conditions: for cell viability (MTT signal): S_Fig12f, listed as Comp 21.4
Procedure: MDA-MB-231 breast cancer cells and A549 lung carcinomas (1500 cells in 150 μl/well) were seeded overnight on a clear 96-well plate. Twenty-four hours later, the cells were treated with 0.1% DMSO, or different concentrations of Rasarfin (as indicated), or 10 µM of 21.4, 21.8 (MDA-MB-231 breast cancer cells) or Doxorubicin for the indicated times at 37 °C. At each time point, 10 μl of 5 mg/ml MTT was added to each well and the plates were incubated for an additional 4 h at 37 °C. The absorbance at 590 nm was measured by plate reader. Experiments were done in triplicate and repeated three times.

[7] = tested on: H-Ras; parameters: method as in PMID 27265506; conditions: cited from earlier work

H-Ras (Homo sapiens, UniProt P01112), sequence (P01112 whole entry): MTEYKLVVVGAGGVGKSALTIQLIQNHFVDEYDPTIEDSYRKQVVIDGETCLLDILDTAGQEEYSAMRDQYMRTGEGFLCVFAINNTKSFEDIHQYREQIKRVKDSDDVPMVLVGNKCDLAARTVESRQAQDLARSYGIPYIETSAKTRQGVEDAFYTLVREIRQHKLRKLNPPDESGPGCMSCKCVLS

Row | Compound | inhibition of AT1R internalization into endosomes (Fig. 8a) [2] | inhibition of AT1R-mediated ERK1/2 (MAPK) activation (Fig. 8b) [3] | Ras exchange activity, mant-GTP loading into H-Ras with SOS1 (Fig. 8c) [4] | other results
1 | Cc1[nH]c2cc(Cl)cc(Cl)c2c1CCN [DCAI, 4,6-dichloro-2-methyl-3-aminoethyl-indole] |  |  |  | SOS binding to Ras and nucleotide exchange [1]: blocks SOS binding to Ras but only inhibits the nucleotide exchange catalyzed by SOS
2 | CCC(=O)N1CCN(c2ccc(NC(=O)c3cccs3)cc2Cl)CC1 [Compound 21.7] | loss of compounds’ efficacy to inhibit AT1R internalization | lost their ability to inhibit MAPK | had no effect | 
3 | CC(C)C(=O)N1CCN(c2ccc(NC(=O)c3cc4ccccc4o3)cc2)CC1 [Compound 21.4] | did not inhibit AT1R internalization | lacks Ras and MAPK inhibitory activities | lacks Ras and MAPK inhibitory activities; also recorded: had no effect | MDA-MB-231 cell proliferation (confluency) [5]: only 21.8, which efficiently inhibits MAPK as well as Rasarfin, inhibited cell proliferation; metabolic activity of MDA-MB-231 cells (MTT) ([6]; 10 µM): moderately decreasing the metabolic activity of cancer cells; cell viability (MTT signal) ([6]; 24h): 0.2634 and 0.244 and 0.2; cell viability (MTT signal) ([6]; 48h): 0.339 and 0.3215 and 0.2045
4 | NAV-2729 |  |  |  | block of H-Ras [7]: inefficacious to block H-Ras
